Square brackets hold non-standard residues; d marks the D form. Peptide text beside a SMILES is read from it. NMeT = CN[C@H](C(=O)O)[C@@H](C)O; NMeK = CN[C@@H](CCCCN)C(=O)O; NMeA = CN[C@@H](C)C(=O)O
Experiments:
Parameters in all cases: concentration or dose not given beside the values
[1] = target: Human immunodeficiency virus type 1 integrase (Human immunodeficiency virus 1) (UniProt Q7ZJM1); experiment: Binding affinity to HIV-1 integrase measured after overnight incubation by chemiluminescence analysis relative to IN 118-128
Human immunodeficiency virus type 1 integrase (Human immunodeficiency virus 1), sequence (Q7ZJM1 as listed by the source): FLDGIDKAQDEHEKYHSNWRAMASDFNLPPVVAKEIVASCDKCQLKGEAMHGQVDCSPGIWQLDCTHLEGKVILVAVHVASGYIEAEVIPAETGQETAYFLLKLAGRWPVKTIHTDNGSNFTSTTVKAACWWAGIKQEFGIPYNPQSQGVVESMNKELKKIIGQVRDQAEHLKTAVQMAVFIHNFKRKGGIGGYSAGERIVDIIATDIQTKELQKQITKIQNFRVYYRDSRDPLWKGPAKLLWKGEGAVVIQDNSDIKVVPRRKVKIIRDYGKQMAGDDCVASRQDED

[2] = system: Human immunodeficiency virus 1; experiment: Binding affinity to HLT-tagged HIV-1 Rev measured after overnight incubation by chemiluminescence analysis relative to IN 118-128
[3] = target: Human immunodeficiency virus type 1 integrase (Human immunodeficiency virus 1) (UniProt Q7ZJM1); experiment: Binding affinity to HIV-1 integrase measured after overnight incubation by chemiluminescence analysis relative to IN 174-188
[4] = system: Human immunodeficiency virus 1; experiment: Binding affinity to HLT-tagged HIV-1 Rev measured after overnight incubation by chemiluminescence analysis relative to IN 174-188

Structure (SMILES)	Activity [1]	Activity [2]	Activity [3]	Activity [4]
CC(C)[C@H](NC(=O)[C@@H](NC(=O)[C@H]([C@@H](C)O)N(C)C(=O)[C@H](CO)NC(=O)[C@@H](NC(=O)[C@H](Cc1ccccc1)NC(=O)[C@H](CC(N)=O)NC(=O)[C@H](CO)NC(=O)CN)[C@@H](C)O)[C@@H](C)O)C(=O)N[C@@H](CCCCN)C(=O)N[C@@H](C)C(=O)O (H-GSNFTS[NMeT]TVKA-OH)	249%	197%	–	–
CC(C)[C@H](NC(=O)[C@@H](NC(=O)[C@@H](NC(=O)[C@H](CO)NC(=O)[C@@H](NC(=O)[C@H](Cc1ccccc1)NC(=O)[C@H](CC(N)=O)NC(=O)[C@H](CO)NC(=O)CN)[C@@H](C)O)[C@@H](C)O)[C@@H](C)O)C(=O)N(C)[C@@H](CCCCN)C(=O)N[C@@H](C)C(=O)O (H-GSNFTSTTV[NMeK]A-OH)	185%	191%	–	–
CC(C)[C@H](NC(=O)[C@@H](NC(=O)[C@@H](NC(=O)[C@H](CO)NC(=O)[C@@H](N)[C@@H](C)O)[C@@H](C)O)[C@@H](C)O)C(=O)N[C@@H](CCCCN)C(=O)N[C@@H](C)C(=O)O (H-TSTTVKA-OH)	135%	111%	–	–
CC(C)[C@H](NC(=O)[C@H](C)NC(=O)[C@@H](NC(=O)[C@H](CO)NC(=O)[C@@H](NC(=O)[C@H](Cc1ccccc1)NC(=O)[C@H](CC(N)=O)NC(=O)[C@H](CO)NC(=O)CN)[C@@H](C)O)[C@@H](C)O)C(=O)N[C@@H](CCCCN)C(=O)N[C@@H](C)C(=O)O (H-GSNFTSTAVKA-OH)	182%	124%	–	–
C[C@@H](O)[C@H](NC(=O)[C@@H](NC(=O)[C@H](CO)NC(=O)[C@@H](NC(=O)[C@H](Cc1ccccc1)NC(=O)[C@H](CC(N)=O)NC(=O)[C@H](CO)NC(=O)CN)[C@@H](C)O)[C@@H](C)O)C(=O)O (H-GSNFTSTT-OH)	19%	0%	–	–
CC(C)[C@H](NC(=O)[C@@H](NC(=O)[C@@H](NC(=O)[C@H](CO)NC(=O)[C@@H](NC(=O)[C@H](Cc1ccccc1)NC(=O)[C@H](C)NC(=O)[C@H](CO)NC(=O)CN)[C@@H](C)O)[C@@H](C)O)[C@@H](C)O)C(=O)N[C@@H](CCCCN)C(=O)N[C@@H](C)C(=O)O (H-GSAFTSTTVKA-OH)	198%	151%	–	–
C[C@@H](O)[C@H](NC(=O)[C@H](Cc1ccccc1)NC(=O)[C@H](CC(N)=O)NC(=O)[C@H](CO)NC(=O)CN)C(=O)N[C@@H](CO)C(=O)O (H-GSNFTS-OH)	0%	0%	–	–
CC(C)[C@H](NC(=O)[C@@H](NC(=O)[C@@H](NC(=O)[C@H](CO)NC(=O)[C@@H](NC(=O)[C@H](Cc1ccccc1)NC(=O)[C@H](CC(N)=O)NC(=O)[C@H](CO)NC(=O)CN)[C@@H](C)O)[C@@H](C)O)[C@@H](C)O)C(=O)O (H-GSNFTSTTV-OH)	27%	0%	–	–
CC[C@H](C)[C@H](NC(=O)[C@H](Cc1ccccc1)NC(=O)[C@@H](NC(=O)[C@H](C)N(C)C(=O)[C@H](CCSC)NC(=O)[C@H](CCC(N)=O)NC(=O)[C@@H](NC(=O)[C@H](C)NC(=O)[C@@H](N)[C@@H](C)O)C(C)C)C(C)C)C(=O)N[C@@H](Cc1cnc[nH]1)C(=O)N[C@@H](CC(N)=O)C(=O)N[C@@H](Cc1ccccc1)C(=O)N[C@@H](CCCCN)C(=O)N[C@@H](CCCNC(=N)N)C(=O)N[C@@H](CCCCN)C(=O)O (H-TAVQM[NMeA]VFIHNFKRK-OH)	–	–	99%	66%
CC[C@H](C)[C@H](NC(=O)[C@@H](Cc1ccccc1)NC(=O)[C@@H](NC(=O)[C@H](C)NC(=O)[C@H](CCSC)NC(=O)[C@H](CCC(N)=O)NC(=O)[C@@H](NC(=O)[C@H](C)NC(=O)[C@@H](N)[C@@H](C)O)C(C)C)C(C)C)C(=O)N[C@@H](Cc1cnc[nH]1)C(=O)N[C@@H](CC(N)=O)C(=O)N[C@@H](Cc1ccccc1)C(=O)N[C@@H](CCCCN)C(=O)N[C@@H](CCCNC(=N)N)C(=O)N[C@@H](CCCCN)C(=O)O	–	–	120%	231%
CC[C@H](C)[C@H](NC(=O)[C@H](Cc1ccccc1)NC(=O)[C@@H](NC(=O)[C@H](C)NC(=O)[C@H](CCSC)NC(=O)[C@H](C)NC(=O)[C@@H](NC(=O)[C@H](C)NC(=O)[C@@H](N)[C@@H](C)O)C(C)C)C(C)C)C(=O)N[C@@H](Cc1cnc[nH]1)C(=O)N[C@@H](CC(N)=O)C(=O)N[C@@H](Cc1ccccc1)C(=O)N[C@@H](CCCCN)C(=O)N[C@@H](CCCNC(=N)N)C(=O)N[C@@H](CCCCN)C(=O)O (H-TAVAMAVFIHNFKRK-OH)	–	–	83%	79%
CC[C@H](C)[C@H](NC(=O)[C@H](Cc1ccccc1)NC(=O)[C@@H](NC(=O)[C@H](C)NC(=O)[C@H](CCSC)NC(=O)[C@H](CCC(N)=O)NC(=O)[C@@H](NC(=O)[C@H](C)NC(=O)[C@@H](N)[C@@H](C)O)C(C)C)C(C)C)C(=O)N[C@@H](Cc1cnc[nH]1)C(=O)N[C@H](CC(N)=O)C(=O)N[C@@H](Cc1ccccc1)C(=O)N[C@@H](CCCCN)C(=O)N[C@@H](CCCNC(=N)N)C(=O)N[C@@H](CCCCN)C(=O)O	–	–	116%	92%
CC[C@H](C)[C@H](NC(=O)[C@H](Cc1ccccc1)NC(=O)[C@@H](N)C(C)C)C(=O)N[C@@H](Cc1cnc[nH]1)C(=O)N[C@@H](CC(N)=O)C(=O)N[C@@H](Cc1ccccc1)C(=O)N[C@@H](CCCCN)C(=O)N[C@@H](CCCNC(=N)N)C(=O)N[C@@H](CCCCN)C(=O)O (H-VFIHNFKRK-OH)	–	–	132%	86%
CSCC[C@H](NC(=O)[C@H](CCC(N)=O)NC(=O)[C@@H](NC(=O)[C@H](C)NC(=O)[C@@H](N)[C@@H](C)O)C(C)C)C(=O)N[C@@H](C)C(=O)N[C@H](C(=O)N[C@@H](Cc1ccccc1)C(=O)O)C(C)C (H-TAVQMAVF-OH)	–	–	0%	0%
CC[C@H](C)[C@H](NC(=O)[C@H](Cc1ccccc1)NC(=O)[C@@H](NC(=O)[C@H](C)NC(=O)[C@H](CCSC)NC(=O)[C@H](CCC(N)=O)NC(=O)[C@@H](NC(=O)[C@H](C)N(C)C(=O)[C@@H](N)[C@@H](C)O)C(C)C)C(C)C)C(=O)N[C@@H](Cc1cnc[nH]1)C(=O)N[C@@H](CC(N)=O)C(=O)N[C@@H](Cc1ccccc1)C(=O)N[C@@H](CCCCN)C(=O)N[C@@H](CCCNC(=N)N)C(=O)N[C@@H](CCCCN)C(=O)O (H-T[NMeA]VQMAVFIHNFKRK-OH)	–	–	75%	86%
CC[C@H](C)[C@H](NC(=O)[C@H](Cc1ccccc1)NC(=O)[C@@H](NC(=O)[C@H](C)NC(=O)[C@H](CCSC)NC(=O)[C@H](CCC(N)=O)NC(=O)[C@@H](NC(=O)[C@H](C)NC(=O)[C@@H](N)[C@@H](C)O)C(C)C)C(C)C)C(=O)N[C@@H](Cc1cnc[nH]1)C(=O)N[C@@H](CC(N)=O)C(=O)N[C@@H](Cc1ccccc1)C(=O)N[C@@H](CCCCN)C(=O)O (H-TAVQMAVFIHNFK-OH)	–	–	120%	127%
CC[C@H](C)[C@H](NC(=O)[C@H](Cc1ccccc1)NC(=O)[C@@H](NC(=O)[C@H](C)NC(=O)[C@H](CCSC)NC(=O)[C@H](CCC(N)=O)NC(=O)[C@@H](NC(=O)[C@H](C)NC(=O)[C@@H](N)[C@@H](C)O)C(C)C)C(C)C)C(=O)N[C@@H](Cc1cnc[nH]1)C(=O)N[C@@H](CC(N)=O)C(=O)N[C@@H](Cc1ccccc1)C(=O)O (H-TAVQMAVFIHNF-OH)	–	–	0%	0%
CC[C@H](C)[C@H](NC(=O)[C@H](Cc1ccccc1)NC(=O)[C@@H](NC(=O)[C@H](C)NC(=O)[C@H](CCSC)NC(=O)[C@H](CCC(N)=O)NC(=O)[C@@H](NC(=O)[C@H](C)NC(=O)[C@@H](N)[C@@H](C)O)C(C)C)C(C)C)C(=O)N[C@@H](Cc1cnc[nH]1)C(=O)N[C@@H](CC(N)=O)C(=O)N[C@@H](Cc1ccccc1)C(=O)N[C@@H](CCCCN)C(=O)N[C@@H](CCCNC(=N)N)C(=O)N(C)[C@@H](CCCCN)C(=O)O (H-TAVQMAVFIHNFKR[NMeK]-OH)	–	–	117%	201%
CC[C@H](C)[C@H](NC(=O)[C@H](Cc1ccccc1)NC(=O)[C@@H](NC(=O)[C@H](C)NC(=O)[C@H](CCSC)NC(=O)[C@H](CCC(N)=O)NC(=O)[C@@H](NC(=O)[C@H](C)NC(=O)[C@@H](N)[C@@H](C)O)C(C)C)C(C)C)C(=O)O (H-TAVQMAVFI-OH)	–	–	0%	0%
CC[C@H](C)[C@H](NC(=O)[C@H](Cc1ccccc1)NC(=O)[C@@H](NC(=O)[C@H](C)NC(=O)[C@H](CCSC)NC(=O)[C@H](CCC(N)=O)NC(=O)[C@@H](NC(=O)[C@H](C)NC(=O)[C@@H](N)[C@@H](C)O)C(C)C)C(C)C)C(=O)N[C@@H](Cc1cnc[nH]1)C(=O)N[C@@H](C)C(=O)N[C@@H](Cc1ccccc1)C(=O)N[C@@H](CCCCN)C(=O)N[C@@H](CCCNC(=N)N)C(=O)N[C@@H](CCCCN)C(=O)O (H-TAVQMAVFIHAFKRK-OH)	–	–	33%	105%
CC[C@H](C)[C@H](NC(=O)[C@H](Cc1ccccc1)NC(=O)[C@@H](NC(=O)[C@H](C)NC(=O)[C@H](CCSC)NC(=O)[C@H](CCC(N)=O)NC(=O)[C@@H](NC(=O)[C@H](C)NC(=O)[C@@H](N)[C@@H](C)O)C(C)C)C(C)C)C(=O)N[C@@H](Cc1cnc[nH]1)C(=O)N[C@@H](CC(N)=O)C(=O)N[C@H](Cc1ccccc1)C(=O)N[C@@H](CCCCN)C(=O)N[C@@H](CCCNC(=N)N)C(=O)N[C@@H](CCCCN)C(=O)O	–	–	112%	156%
CC[C@H](C)[C@H](NC(=O)[C@H](Cc1ccccc1)NC(=O)[C@@H](NC(=O)[C@H](C)NC(=O)[C@H](CCSC)NC(=O)[C@H](CCC(N)=O)NC(=O)[C@@H](NC(=O)[C@H](C)NC(=O)[C@@H](N)[C@@H](C)O)C(C)C)C(C)C)C(=O)N[C@@H](Cc1cnc[nH]1)C(=O)N[C@@H](CC(N)=O)C(=O)N[C@@H](Cc1ccccc1)C(=O)N(C)[C@@H](CCCCN)C(=O)N[C@@H](CCCNC(=N)N)C(=O)N[C@@H](CCCCN)C(=O)O (H-TAVQMAVFIHNF[NMeK]RK-OH)	–	–	130%	70%
CC[C@H](C)[C@H](NC(=O)[C@H](Cc1ccccc1)NC(=O)[C@@H](NC(=O)[C@H](C)NC(=O)[C@H](CCSC)NC(=O)[C@H](CCC(N)=O)NC(=O)[C@@H](NC(=O)[C@H](C)NC(=O)[C@@H](N)[C@@H](C)O)C(C)C)C(C)C)C(=O)N[C@@H](Cc1cnc[nH]1)C(=O)N[C@@H](CC(N)=O)C(=O)N[C@@H](Cc1ccccc1)C(=O)N[C@@H](CCCCN)C(=O)N[C@@H](CCCNC(=N)N)C(=O)N[C@H](CCCCN)C(=O)O	–	–	86%	110%

— ChEMBL document CHEMBL3217454, “Structureactivity relationship studies using peptide arrays: the example of HIV-1 Revintegrase interaction” (Medchemcomm, 2013)
